{"source": "patent US12378189B2", "about": "“Multi-aziridine compound” (priority 2020, dated 2025)", "key": {"[1]": {"tested_on": "Bscl2-GFP and Rtkn-GFP reporters in mouse embryonic stem (mES) cells", "test": "ToxTracker genotoxicity assay, overall conclusion from Bscl2-GFP and Rtkn-GFP", "details": "positive: >= 2-fold induction at one of 10, 25, 50% cytotoxicity, with or without S9; not genotoxic: <= […] at all", "description": "This methodology uses a two step-approach.\nMetabolic was evaluated by addition of S9 liver extract. […] Only GFP expression in intact single cells is determined."}, "[2]": {"tested_on": "Rtkn-GFP reporter in mouse embryonic stem (mES) cells", "test": "ToxTracker genotoxicity assay, Rtkn-GFP reporter induction;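 also: GFP reporter signal quantified solely in intact single cells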", "quoted_text": "(§1) The genotoxicity can be measured by the ToxTracker® assay (Toxys, Leiden, the Netherlands) as further described herein.\n(§2) Genotoxicity of examples and comparatives was evaluated by the ToxTracker® assay (Toxys, Leiden, the Netherlands). The ToxTracker assay is a panel of several validated Green Fluorescent Protein (GFP)-based mouse embryonic stem (mES) reporter cell lines that can be used to identify the biological reactivity and potential carcinogenic properties of newly developed compounds in a single test. This methodology uses a two step-approach.\n(§3) In the first step a dose range finding was performed using wild-type mES cells (strain B4418). 20 different concentrations for each compound was tested, starting at 10 mM in DMSO as highest concentration and nineteen consecutive 2-fold dilutions.\n(§4) Genotoxicity was evaluated at 10, 25 and 50% cytotoxicity in absence and presence of rat S9 liver extract-based metabolizing systems (aroclor1254-induced rats, Moltox, Boone, NC, USA). The independent cell lines were seeded in 96-well cell culture plates, 24 h after seeding the cells in the 96-well plates, fresh ES cell medium containing the diluted test substance was added to the cells. For each tested compound, five concentrations are tested in 2-fold dilutions. The highest sample concentration will induce significant cytotoxicity (50-70%). In case of no or low cytotoxicity, 10 mM or the maximum soluble mixture concentration is used as maximum test concentration. Cytotoxicity is determined by cell count after 24 h exposure using a Guava easyCyte 10HT flow cytometer (Millipore).\n(§5) GFP reporter induction is always compared to a vehicle control treatment.\n(§6) All compounds were tested in at least three completely independent repeat experiments. Positive reference treatment with cisplatin (DNA damage) were included in all experiments. Metabolic was evaluated by addition of S9 liver extract. Cells are exposed to five concentrations of the test compound in the presence of S9 and required co-factors (RegenSysA+B, Moltox, Boone, NC, USA) for 3 h. After washing, cells are incubated for 24 h in fresh ES cell medium. Induction of the GFP reporters is determined after 24 h exposure using a Guava easyCyte 10HT flow cytometer (Millipore). Only GFP expression in intact single cells is determined. Mean GFP fluorescence and cell concentrations in each well is measured, which is used for cytotoxicity assessment. Data was analyzed using ToxPlot software (Toxys, Leiden, the Netherlands). The induction levels reported are at compound concentrations that induce 10%, 25% and 50% cytotoxicity after 3 h exposure in the presence of S9 rat liver extract and 24 h recovery or alternatively after 24 h exposure when not in the presence of S9 rat liver extract."}, "[3]": {"tested_on": "Bscl2-GFP reporter in mouse embryonic stem (mES) cells", "test": "ToxTracker genotoxicity assay, Bscl2-GFP reporter induction", "quoted_text": "as §1, §2, §3, §4, §5, §6"}, "[4]": {"details": "with S9 rat liver extract, concentration inducing 10% cytotoxicity, 3 h exposure, 24 h recovery"}, "[5]": {"details": "with S9 rat liver extract, concentration inducing 25% cytotoxicity, 3 h exposure, 24 h recovery"}, "[6]": {"details": "with S9 rat liver extract, concentration inducing 50% cytotoxicity, 3 h exposure, 24 h recovery"}, "[7]": {"details": "without S9 rat liver extract, concentration inducing 10% cytotoxicity, 24 h exposure"}, "[8]": {"details": "without S9 rat liver extract, concentration inducing 25% cytotoxicity, 24 h exposure"}, "[9]": {"details": "without S9 rat liver extract, concentration inducing 50% cytotoxicity, 24 h exposure"}}}
{"smiles": "CC(CN1CC1)OC(=O)NCCCCCCn1c(=O)n(CCCCCCNC(=O)OC(C)CN2CC2)c(=O)n(CCCCCCNC(=O)OC(C)CN2CC2)c1=O", "note": "(stereo not shown) [Comp. Ex. 3]", "values": [{"measurement": "Genotoxicity test result (conclusion)", "setting": "[1]", "result": "genotoxic"}, {"measurement": "Rtkn induction level", "setting": "[2]; [4]", "result": 1.3, "unit": "fold"}, {"measurement": "Rtkn induction level", "setting": "[2]; [5]", "result": 2.1, "unit": "fold"}, {"measurement": "Rtkn induction level", "setting": "[2]; [6]", "result": 2.2, "unit": "fold"}, {"measurement": "Rtkn induction level", "setting": "[2]; [7]", "result": 1.3, "unit": "fold"}, {"measurement": "Rtkn induction level", "setting": "[2]; [8]", "result": 1.8, "unit": "fold"}, {"measurement": "Rtkn induction level", "setting": "[2]; [9]", "result": 1.9, "unit": "fold"}]}
{"smiles": "O=C(NCCCCCCn1c(=O)n(CCCCCCNC(=O)OCCN2CC2)c(=O)n(CCCCCCNC(=O)OCCN2CC2)c1=O)OCCN1CC1", "note": "[Comp. Ex. 2]", "values": [{"measurement": "Genotoxicity test result (conclusion)", "setting": "[1]", "result": "genotoxic"}, {"measurement": "Rtkn induction level", "setting": "[2]; [4]", "result": 2.0, "unit": "fold"}, {"measurement": "Rtkn induction level", "setting": "[2]; [5]", "result": 3.4, "unit": "fold"}, {"measurement": "Rtkn induction level", "setting": "[2]; [6]", "result": 3.0, "unit": "fold"}, {"measurement": "Rtkn induction level", "setting": "[2]; [7]", "result": 1.7, "unit": "fold"}, {"measurement": "Rtkn induction level", "setting": "[2]; [8]", "result": 2.4, "unit": "fold"}, {"measurement": "Rtkn induction level", "setting": "[2]; [9]", "result": 2.8, "unit": "fold"}]}
{"smiles": "CCCCOCC(CN1CC1)OC(=O)NC1CCC(CC2CCC(NC(=O)OC(COCCCC)CN3CC3)CC2)CC1", "note": "(stereo not shown) [Comp. Ex 4]", "values": [{"measurement": "Genotoxicity test result (conclusion)", "setting": "[1]", "result": "genotoxic"}, {"measurement": "Rtkn induction level", "setting": "[2]; [4]", "result": 1.1, "unit": "fold"}, {"measurement": "Rtkn induction level", "setting": "[2]; [5]", "result": 1.6, "unit": "fold"}, {"measurement": "Rtkn induction level", "setting": "[2]; [6]", "result": 1.9, "unit": "fold"}, {"measurement": "Rtkn induction level", "setting": "[2]; [7]", "result": 1.2, "unit": "fold"}, {"measurement": "Rtkn induction level", "setting": "[2]; [8]", "result": 1.5, "unit": "fold"}, {"measurement": "Rtkn induction level", "setting": "[2]; [9]", "result": 2.1, "unit": "fold"}]}
{"smiles": "CCCCOCC(CN1CC1)OC(=O)NCCCCCC/N=c1\\oc(=O)n(CCCCCCNC(=O)OC(COCCCC)CN2CC2)c(=O)n1CCCCCCNC(=O)OC(COCCCC)CN1CC1", "note": "(stereo not shown) [Ex. 5]", "values": [{"measurement": "Genotoxicity test result (conclusion)", "setting": "[1]", "result": "non-genotoxic"}, {"measurement": "Rtkn induction level", "setting": "[2]; [4]", "result": 1.0, "unit": "fold"}, {"measurement": "Rtkn induction level", "setting": "[2]; [5]", "result": 0.9, "unit": "fold"}, {"measurement": "Rtkn induction level", "setting": "[2]; [6]", "result": 1.0, "unit": "fold"}, {"measurement": "Rtkn induction level", "setting": "[2]; [7]", "result": 1.0, "unit": "fold"}, {"measurement": "Rtkn induction level", "setting": "[2]; [8]", "result": 1.1, "unit": "fold"}, {"measurement": "Rtkn induction level", "setting": "[2]; [9]", "result": 1.0, "unit": "fold"}]}
{"smiles": "CCCCOCC(CN1CC1)OC(=O)NCCCCCCn1c(=O)n(CCCCCCNC(=O)OC(COCCCC)CN2CC2)c(=O)n(CCCCCCNC(=O)OC(COCCCC)CN2CC2)c1=O", "note": "(stereo not shown) [Ex. 1]", "values": [{"measurement": "Genotoxicity test result (conclusion)", "setting": "[1]", "result": "non-genotoxic"}, {"measurement": "Rtkn induction level", "setting": "[2]; [4]", "result": 1.0, "unit": "fold"}, {"measurement": "Rtkn induction level", "setting": "[2]; [5]", "result": 1.1, "unit": "fold"}, {"measurement": "Rtkn induction level", "setting": "[2]; [6]", "result": 1.1, "unit": "fold"}, {"measurement": "Rtkn induction level", "setting": "[2]; [7]", "result": 1.0, "unit": "fold"}, {"measurement": "Rtkn induction level", "setting": "[2]; [8]", "result": 1.0, "unit": "fold"}, {"measurement": "Rtkn induction level", "setting": "[2]; [9]", "result": 0.9, "unit": "fold"}]}
{"smiles": "CCCCCCCCCC(=O)OCC(CN1CC1)OC(=O)NCCCCCCn1c(=O)n(CCCCCCNC(=O)OC(COC(=O)CCCCCCCCC)CN2CC2)c(=O)n(CCCCCCNC(=O)OC(COC(=O)CCCCCCCCC)CN2CC2)c1=O", "note": "(stereo not shown) [Ex. 3]", "values": [{"measurement": "Genotoxicity test result (conclusion)", "setting": "[1]", "result": "non-genotoxic"}, {"measurement": "Bscl 2 induction level", "setting": "[3]; [4]", "result": 1.1, "unit": "fold"}, {"measurement": "Bscl 2 induction level", "setting": "[3]; [5]", "result": 1.2, "unit": "fold"}, {"measurement": "Bscl 2 induction level", "setting": "[3]; [6]", "result": 1.2, "unit": "fold"}, {"measurement": "Bscl 2 induction level", "setting": "[3]; [7]", "result": 1.1, "unit": "fold"}, {"measurement": "Bscl 2 induction level", "setting": "[3]; [8]", "result": 1.2, "unit": "fold"}, {"measurement": "Bscl 2 induction level", "setting": "[3]; [9]", "result": 1.4, "unit": "fold"}, {"measurement": "Rtkn induction level", "setting": "[2]; [4]", "result": 1.3, "unit": "fold"}, {"measurement": "Rtkn induction level", "setting": "[2]; [5]", "result": 1.5, "unit": "fold"}, {"measurement": "Rtkn induction level", "setting": "[2]; [6]", "result": 1.5, "unit": "fold"}, {"measurement": "Rtkn induction level", "setting": "[2]; [7]", "result": 1.3, "unit": "fold"}, {"measurement": "Rtkn induction level", "setting": "[2]; [8]", "result": 1.5, "unit": "fold"}, {"measurement": "Rtkn induction level", "setting": "[2]; [9]", "result": 1.5, "unit": "fold"}]}
{"smiles": "O=C(CCN1CC1)OCC(CO)(COC(=O)CCN1CC1)COC(=O)CCN1CC1", "note": "[Comp Ex 5, pentaerythritol tris(3-(1-aziridinyl)propionate)]", "values": [{"measurement": "Genotoxicity test result (conclusion)", "setting": "[1]", "result": "genotoxic"}]}
